Results reported in the supplement of paper PMC8967900.

Legend:
Experiment in all cases: selective drug sensitivity score (sDSS, relative to normal bone marrow) (sDSS (score)); higher = more potent and effective on the cell line relative to normal bone marrow cells
Settings in all cases: 72 h
CCRF-CEM = test system: CCRF-CEM
CCRF-HSB2 = test system: CCRF-HSB2
COG-LL-319h = test system: COG-LL-319h
COG-LL-332h = test system: COG-LL-332h
DND-41 = test system: DND-41
HPB-ALL = test system: HPB-ALL
KASUMI-10 = test system: KASUMI-10
KASUMI-2 = test system: KASUMI-2
LC4-1 = test system: LC4-1
MHH-CALL-4 = test system: MHH-CALL-4
MN-60 = test system: MN-60
MOLT-14 = test system: MOLT-14
MOLT-16 = test system: MOLT-16
NALL-1 = test system: NALL-1
NALM-16 = test system: NALM-16
NALM-6 = test system: NALM-6
REH = test system: REH
SEM cells = test system: SEM cells
SUP-B15 = test system: SUP-B15
TANOUE = test system: TANOUE
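Note: ALL cell lines in 384-well plates, five doses spanning 10,000-fold, each plate scaled between vehicle and 100 µmol/L benzalkonium chloride controls, sDSS an adapted area-under-curve metric.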

SMILES	selective drug sensitivity score (CCRF-CEM)	selective drug sensitivity score (CCRF-HSB2)	selective drug sensitivity score (COG-LL-319h)	selective drug sensitivity score (COG-LL-332h)	selective drug sensitivity score (DND-41)	selective drug sensitivity score (HPB-ALL)	selective drug sensitivity score (KASUMI-10)	selective drug sensitivity score (KASUMI-2)	selective drug sensitivity score (LC4-1)	selective drug sensitivity score (MHH-CALL-4)	selective drug sensitivity score (MN-60)	selective drug sensitivity score (MOLT-14)	selective drug sensitivity score (MOLT-16)	selective drug sensitivity score (NALL-1)	selective drug sensitivity score (NALM-16)	selective drug sensitivity score (NALM-6)	selective drug sensitivity score (REH)	selective drug sensitivity score (SEM cells)	selective drug sensitivity score (SUP-B15)	selective drug sensitivity score (TANOUE)
Cc1c2oc3c(C)ccc(C(=O)N[C@@H]4C(=O)N[C@H](C(C)C)C(=O)N5CCC[C@H]5C(=O)N(C)CC(=O)N(C)[C@@H](C(C)C)C(=O)O[C@@H]4C)c3nc-2c(C(=O)N[C@@H]2C(=O)N[C@H](C(C)C)C(=O)N3CCC[C@H]3C(=O)N(C)CC(=O)N(C)[C@@H](C(C)C)C(=O)O[C@@H]2C)c(N)c1=O [Dactinomycin] (top concentration 1000 nM)	7.04	15.7	5.94	14.5	11	6.14	17.6	15	17.5	11.6	8.94	16.9	18.8	1.44	5.24	12.5	16.3	11.3	20.7	-11.2
C=CC(=O)Nc1cccc(Oc2nc(Nc3ccc(N4CCN(C)CC4)cc3)nc3ccsc23)c1 [Olmutinib] (top concentration 1000 nM)	-0.02	-0.02	-0.02	-0.02	-0.02	-0.02	-0.02	-0.02	-0.02	-0.02	-0.02	-0.02	-0.02	5.88	-0.02	-0.02	2.28	-0.02	-0.02	-0.02
CCNc1nc(Nc2cc(F)c(C(=O)N3CCOCC3)cc2OC)ncc1C(F)(F)F [GNE-7915] (top concentration 1000 nM)	-0.06	-0.06	-0.06	-0.06	-0.06	-0.06	-0.06	-0.06	-0.06	-0.06	-0.06	-0.06	-0.06	-0.06	-0.06	-0.06	-0.06	-0.06	-0.06	-0.06
O=C(NCc1ccncc1)C12CC3CC(C1)CC(c1ccc(Cl)cc1)(C3)C2 (top concentration 50000 nM)	2.28	2.68	-0.62	2.08	4.08	1.88	0.98	-0.42	0.18	2.78	-0.02	1.38	1.58	3.58	-0.72	-0.22	5.18	3.88	0.18	-0.72
CNC(=O)c1ccc(N2C(=S)N(c3cnc(C#N)c(C(F)(F)F)c3)C(=O)C23CCC3)cc1F [Apalutamide] (top concentration 10000 nM)	0	0	0	0	0	0	0	0	0	0	0	0	0	0	0	0	0	0	0	0.1
c1cn2cc(-c3ccc4cn[nH]c4c3)nc(Nc3ccc(N4CCOCC4)cc3)c2n1 [Entospletinib] (top concentration 5000 nM)	-0.64	-0.64	-0.64	-0.64	-0.64	-0.64	-0.64	-0.64	-0.64	-0.64	-0.64	-0.64	-0.64	-0.64	-0.64	1.26	-0.64	4.56	1.36	-0.64
COc1cc2ncnc(Nc3ccc(F)c(Cl)c3)c2cc1OCCCN1CCOCC1 [Gefitinib] (top concentration 10000 nM)	0.56	6.16	5.66	2.56	1.16	-1.14	1.36	-3.04	1.16	-3.04	0.66	1.96	3.36	1.06	-3.04	-0.44	2.36	0.66	1.56	-1.84
Cc1ccc(-n2nc(C(C)(C)C)cc2NC(=O)Nc2ccc(OCCN3CCOCC3)c3ccccc23)cc1 [Doramapimod] (top concentration 10000 nM)	-0.24	2.76	1.06	4.36	-0.24	2.76	1.16	-0.24	1.76	-0.24	0.66	-0.24	4.16	-0.24	7.06	-0.24	5.36	1.06	5.16	1.16
O=C(O)CC1CC(c2ccccc2)=NO1 (stereo not given) [VGX-1027] (top concentration 10000 nM)	-0.04	-0.04	-0.04	-0.04	-0.04	-0.04	-0.04	-0.04	-0.04	-0.04	-0.04	-0.04	0.16	-0.04	-0.04	-0.04	-0.04	-0.04	-0.04	-0.04
COc1cc(C)c(/C=C/C(C)=C/C=C/C(C)=C/C(=O)O)c(C)c1C [Acitretin] (top concentration 10000 nM)	-1	0	-1.6	0	-1.6	-0.1	-1.6	-1.6	-0.9	-1.6	-1.6	-1.4	-0.4	-1.6	-1.6	-1.5	-1.6	0.4	-1.6	-1.6
Cc1ccc(-c2cc(C(F)(F)F)nn2-c2ccc(S(N)(=O)=O)cc2)cc1 [Celecoxib] (top concentration 10000 nM)	-0.06	-0.06	0.04	0.34	1.24	-0.06	-0.06	7.54	1.24	-0.06	-0.06	-0.06	0.34	-0.06	-0.06	-0.06	-0.06	-0.06	2.44	-0.06
Cc1cc2c(F)c(Oc3ncnn4cc(OC[C@@H](C)O)c(C)c34)ccc2[nH]1 [Brivanib] (top concentration 1000 nM)	-0.04	-0.04	-0.04	0.16	-0.04	-0.04	-0.04	-0.04	-0.04	-0.04	2.76	0.26	-0.04	-0.04	-0.04	-0.04	0.96	-0.04	-0.04	-0.04
CCCCNc1ncc(C(=O)NCc2ccc(-n3ccnc3)cc2)c(NC2CCC(O)CC2)n1 (stereo not given) [UNC2881] (top concentration 2500 nM)	0	0	0	0.1	0	0	4.9	0	0	0.5	0	0	0.2	0.6	0	0	0.2	6.3	3.9	0
Nc1nc(Nc2ccc3c(c2)CC[C@@H](N2CCCC2)CC3)nn1-c1cc2c(nn1)-c1ccccc1CCC2 [BGB324] (top concentration 10000 nM)	1.92	2.32	0.22	2.22	1.32	-2.88	0.32	-1.58	1.52	-2.88	-2.48	1.62	2.92	-2.68	-1.58	1.92	0.92	5.72	3.02	-3.88
CN1CC[C@@H](NC(=O)Nc2ccc(C#N)cc2)C[C@@H]1c1nc2ccccc2[nH]1 [Glasdegib] (top concentration 1000 nM)	0	0	4.1	1	2.9	0.1	0	11.9	0	0	4.7	0	0	0.1	0	0	1.6	0	0	2.9
CCCCC(=O)OCC(=O)[C@]1(O)Cc2c(O)c3c(c(O)c2[C@@H](O[C@H]2C[C@H](NC(=O)C(F)(F)F)[C@H](O)[C@H](C)O2)C1)C(=O)c1c(OC)cccc1C3=O [Valrubicin] (top concentration 5000 nM)	10.9	15.6	12.9	11.2	-1.02	-4.12	8.48	8.38	2.98	7.28	-3.92	12.6	18.1	-1.82	-3.22	3.18	12.1	6.58	12.2	-12.7
CCC1=C[C@@H]2CN(C1)Cc1c([nH]c3ccccc13)[C@@](C(=O)OC)(c1cc3c(cc1OC)N(C)[C@H]1[C@@](O)(C(=O)OC)[C@H](OC(C)=O)[C@]4(CC)C=CCN5CC[C@]31[C@@H]54)C2 [Vinorelbine] (top concentration 10000 nM)	17.8	20.1	12.2	20.5	11.8	14.6	15.7	17.8	23.4	8.98	1.68	22.9	24.7	16.1	18.3	14.9	26.6	24.1	27.2	-8.32
CC(O)c1cc(C(=O)N[C@@H](C)Cn2ccc(-c3ccc(C#N)c(Cl)c3)n2)n[nH]1 (stereo not given in full) [ODM-201] (top concentration 2500 nM)	1.52	1.62	10.6	1.52	2.12	0.12	-0.28	-0.28	1.62	-0.28	-0.28	0.82	1.82	-0.28	-0.28	1.22	0.02	-0.28	4.22	2.32
